Results: patent US8933015B2, “Macrocyclic inhibitors of flaviviridae viruses” (Gilead Sciences, Inc., priority 2010, dated 2015)

How the values were obtained:
[1] = tested on: human hepatoma Huh-7 cell line harboring a HCV replicon; assay: HCV replicon assay (inhibition of viral replication, luciferase); type: cell-based; settings: Hepatitis C virus; for EC50: Huh-7, 72 h; for inhibition at 1 µM: Huh-7, read-out: % inhibition at 1 μM
Experimental: The anti-HCV activity of the compounds of this invention was tested in a human hepatoma Huh-7 cell line harboring a HCV replicon. The assay comprised the following steps:
Step 1: Compound Preparation and Serial Dilution
Serial dilution was performed in 100% DMSO in a 384-well plate. A solution containing a compound at 225-fold concentration of the starting final serial dilution concentration was prepared in 100% DMSO and 15 uL added to the pre-specified wells in column 3 or 13 of a polypropylene 384-well plate. The rest of the 384-well plate was filled with 10 uL 100% DMSO except for columns 23 and 24, where 10 uL of 500 uM a HCV protease inhibitor (ITMN-191) in 100% DMSO was added. […] The plate was then placed on a Biomek FX Workstation to start the serial dilution. The serial dilution was performed for ten cycles of 3-fold dilution from column 3 to 12 or from column 13 to 22.
Step 2: Cell Culture Plate Preparation and Compound Addition
To each well of a black polypropylene 384-well plate, 90 μL of cell media containing 1600 suspended Huh-7 HCV replicon cells was added with a Biotek uFlow Workstation. A volume of 0.4 μL of the compound solution was transferred from the serial dilution plate to the cell culture plate on a Biomek FX Workstation. The DMSO concentration in the final assay condition was 0.44%. The plates were incubated for 3 days at 37° C. with 5% CO2 and 85% humidity.
Step 3: Detection of Cytotoxicity and Inhibition of Viral Replication
b) Assessment of inhibition of viral replication: The calcein-PBS solution in the 384-well cell culture plate was aspirated with a Biotek EL405 plate-washer. A volume of 20 μL of Dual-Glo luciferase buffer (Promega, Dual-Glo Luciferase Assay Reagent, cat. #E298B) was added to each well of the plate with a Biotek uFlow Workstation. The plate was incubated for 10 minutes at room temperature. A volume of 20 μL of a solution containing 1:100 mixture of Dual-Glo Stop & Glo substrate (Promega, Dual-Glo Luciferase Assay Reagent, cat. #E313B) and Dual-Glo Stop & Glo buffer (Promega, Dual-Glo Luciferase Assay Reagent, cat. #E314B) was then added to each well of the plate with a Biotek uFlow Workstation. The plate was incubated at room temperature for 10 minutes before the luminescence signal was measured with a Perkin Elmer Envision Plate Reader.
The percent cytotoxicity was determined by calcein AM conversion to fluorescent product. The average fluorescent signal from the DMSO control wells were defined as 100% nontoxic. The individual fluorescent signal from testing compound treated well was divided by the average signal from DMSO control wells and then multiplied by 100% to get the percent viability. The percent anti-HCV replication activity was determined by the luminescence signal from the testing well compared to DMSO controls wells. The background signal was determined by the average luminescence signal from the HCV protease inhibitor treated wells and was subtracted from the signal from the testing wells as well as the DMSO control wells.
Where b is Hill's coefficient. See, for reference, Hill, A. V., The Possible Effects of the Aggregation of the Molecules of Hemoglobin on its Dissociation Curves, J. Physiol. 40: iv-vii. (1910).
% inhibition values at a specific concentration, for example 2 μM, can also be derived from the formula above.
The EC50's are presented as a % inhibition.

[2] = biological target: cyclophilin A (Homo sapiens, UniProt P62937); assay: Cyclophilin A TR-FRET competitive binding assay; settings: inhibition of cyclophilin binding; 5 nM CypA, 150 nM CsA-Cy5
Chain of cyclophilin A (P62937 whole entry, species assumed): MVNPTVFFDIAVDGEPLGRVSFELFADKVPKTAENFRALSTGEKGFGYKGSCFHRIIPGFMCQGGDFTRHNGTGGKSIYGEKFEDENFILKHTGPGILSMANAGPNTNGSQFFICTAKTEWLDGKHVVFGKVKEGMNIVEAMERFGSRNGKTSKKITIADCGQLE
Experimental: Cyclophilin A TR-FRET Competitive Binding Assay
Inhibitor potency was measured using a competitive binding assay with a time-resolved fluorescence resonance energy transfer (TR-FRET) readout. […] The total volume of the assay solution was 100 μL. […] An IC50 value was calculated using a four-parameter logistic fit.

Structure (SMILES): CO[C@@H]1[C@@H](C)[C@@H](OC)/C=C/C=C/CCOC(=O)[C@@H]2CCCN(N2)C(=O)[C@H](Cc2cccc(O)c2)NC(=O)[C@H](C(C)C)NC(=O)[C@@H]1C [Compound 3, (13E,15E)-(3S,6S,9R,10R,11S,12S,21S)-3-(3-Hydroxy-benzyl)-6-isopropyl-10,12-dimethoxy-9,11-dimethyl-19-oxa-1,4,7,25-tetraaza-bicyclo[19.3.1]pentacosa-13,15-diene-2,5,8,20-tetraone]
- EC50 [1]: < 1000 nM
- inhibition at 1 µM [1]: 59%

Structure (SMILES): CO[C@@H]1[C@@H](C)[C@@H](OC)/C=C/C=C/CCNC(=O)[C@@H]2CCCN(N2)C(=O)[C@H](Cc2cccc(O)c2)NC(=O)[C@H](C(C)C)NC(=O)[C@@H]1C [Compound 4, (13E,15E)-(3S,6S,9R,10R,11S,12S,21S)-3-(3-Hydroxy-benzyl)-6-isopropyl-10,12-dimethoxy-9,11-dimethyl-1,4,7,19,25-pentaaza-bicyclo[19.3.1]pentacosa-13,15-diene-2,5,8,20-tetraone]
- IC50 [2]: < 100 nM
- EC50 [1]: 1100 to 10000 nM
- inhibition at 1 µM [1]: 10%

Structure (SMILES): CO[C@@H]1[C@@H](C)[C@@H](OC)/C=C/c2cccc(c2)COC(=O)[C@@H]2CCCN(N2)C(=O)[C@H](Cc2cccc(O)c2)NC(=O)[C@H](C(C)C)NC(=O)[C@@H]1C [Compound 5, (E)-(5S,11S,14S,17R,18R,19S,20S)-11-(3-Hydroxy-benzyl)-14-isopropyl-18,20-dimethoxy-17,19-dimethyl-3-oxa-9,12,15,28-tetraaza-tricyclo[21.3.1.1*5,9*]octacosa-1(27),21,23,25-tetraene-4,10,13,16-tetraone]
- IC50 [2]: < 100 nM
- EC50 [1]: < 1000 nM
- inhibition at 1 µM [1]: 67%

Structure (SMILES): CC(C)[C@@H]1NC(=O)[C@H](C)[C@H](O)c2ccc(cc2)/C=C/CCOC(=O)[C@@H]2CCCN(N2)C(=O)[C@H](Cc2cccc(O)c2)NC1=O [Compound 8, (E)-(8S,14S,17S,20R,21S)-21-Hydroxy-14-(3-hydroxy-benzyl)-17-isopropyl-20-methyl-6-oxa-12,15,18,27-tetraaza-tricyclo[20.2.2.1*8,12*]heptacosa-1(25),2,22(26),23-tetraene-7,13,16,19-tetraone]
- IC50 [2]: 101 to 1000 nM
- inhibition at 1 µM [1]: 13%

Structure (SMILES): CC(C)[C@@H]1NC(=O)[C@H](C)[C@H](O)c2ccc(cc2)CCCCOC(=O)[C@@H]2CCCN(N2)C(=O)[C@H](Cc2cccc(O)c2)NC1=O [Compound 9, (8S,14S,17S,20R,21S)-21-Hydroxy-14-(3-hydroxy-benzyl)-17-isopropyl-20-methyl-6-oxa-12,15,18,27-tetraaza-tricyclo[20.2.2.1*8,12*]heptacosa-1(25),22(26),23-triene-7,13,16,19-tetraone]
- IC50 [2]: 1000 to 10000 nM
- EC50 [1]: 10100 to 100000 nM
- inhibition at 1 µM [1]: 4%

Structure (SMILES): CO[C@@H]1CC/C=C/c2cccc(c2)COC(=O)[C@@H]2CCCN(N2)C(=O)[C@H](Cc2cccc(O)c2)NC(=O)[C@H](C(C)C)NC(=O)[C@@H]1C [Compound 10, (E)-(5S,11S,14S,17R,18R)-11-(3-Hydroxy-benzyl)-14-isopropyl-18-methoxy-17-methyl-3-oxa-9,12,15,28-tetraaza-tricyclo[21.3.1.1*5,9*]octacosa-1(27),21,23,25-tetraene-4,10,13,16-tetraone]
- inhibition at 1 µM [1]: 59%

Structure (SMILES): CO[C@@H]1CC/C=C/C=C/CCOC(=O)[C@@H]2CCCN(N2)C(=O)[C@H](Cc2cccc(O)c2)NC(=O)[C@H](C(C)C)NC(=O)[C@@H]1C [Compound 11, (13E,15E)-(3S,6S,9R,10R,21S)-3-(3-Hydroxy-benzyl)-6-isopropyl-10-methoxy-9-methyl-19-oxa-1,4,7,25-tetraaza-bicyclo[19.3.1]pentacosa-13,15-diene-2,5,8,20-tetraone]
- EC50 [1]: < 1000 nM
- inhibition at 1 µM [1]: 67%

Structure (SMILES): CO[C@@H]1[C@@H](C)[C@@H](OC)/C=C/C=C/C[C@@H](C)OC(=O)[C@@H]2CCCN(N2)C(=O)[C@H](Cc2cccc(O)c2)NC(=O)[C@H](C(C)C)NC(=O)[C@@H]1C [Compound 12, (13E,15E)-(3S,6S,9R,10R,11S,12S,18R,21S)-3-(3-Hydroxy-benzyl)-6-isopropyl-10,12-dimethoxy-9,11,18-trimethyl-19-oxa-1,4,7,25-tetraaza-bicyclo[19.3.1]pentacosa-13,15-diene-2,5,8,20-tetraone]
- IC50 [2]: < 100 nM
- EC50 [1]: < 1000 nM
- inhibition at 1 µM [1]: 82%

Structure (SMILES): CO[C@@H]1CC/C=C/c2cccc(c2)[C@@H](C)OC(=O)[C@@H]2CCCN(N2)C(=O)[C@H](Cc2cccc(O)c2)NC(=O)[C@H](C(C)C)NC(=O)[C@@H]1C [Compound 13, (E)-(2R,5S,11S,14S,17R,18R)-11-(3-Hydroxy-benzyl)-14-isopropyl-18-methoxy-2,17-dimethyl-3-oxa-9,12,15,28-tetraaza-tricyclo[21.3.1.1*5,9*]octacosa-1(26),21,23(27),24-tetraene-4,10,13,16-tetraone]
- EC50 [1]: < 1000 nM
- inhibition at 1 µM [1]: 93%

Structure (SMILES): CO[C@@H]1CC/C=C/c2cccc(c2)[C@@H](C)NC(=O)[C@@H]2CCCN(N2)C(=O)[C@H](Cc2cccc(O)c2)NC(=O)[C@H](C(C)C)NC(=O)[C@@H]1C [Compound 16, (E)-(2R,5S,11S,14S,17R,18R)-11-(3-Hydroxy-benzyl)-14-isopropyl-18-methoxy-2,17-dimethyl-3,9,12,15,28-pentaaza-tricyclo[21.3.1.1*5,9*]octacosa-1(27),21,23,25-tetraene-4,10,13,16-tetraone]
- IC50 [2]: < 100 nM
- EC50 [1]: < 1000 nM
- inhibition at 1 µM [1]: 75%

Structure (SMILES): CO[C@@H]1CC/C=C/c2ccnc(c2)COC(=O)[C@@H]2CCCN(N2)C(=O)[C@H](Cc2cccc(O)c2)NC(=O)[C@H](C(C)C)NC(=O)[C@@H]1C [Compound 17, (E)-(1S,14R,15R,18S,21S)-21-(3-Hydroxy-benzyl)-18-isopropyl-14-methoxy-15-methyl-3-oxa-6,17,20,23,27-pentaaza-tricyclo[21.3.1.1*5,9*]octacosa-5,7,9(28),10-tetraene-2,16,19,22-tetraone]
- IC50 [2]: < 100 nM
- EC50 [1]: < 1000 nM
- inhibition at 1 µM [1]: 56%

Structure (SMILES): CO[C@@H]1CC/C=C/c2cc(ccn2)COC(=O)[C@@H]2CCCN(N2)C(=O)[C@H](Cc2cccc(O)c2)NC(=O)[C@H](C(C)C)NC(=O)[C@@H]1C [Compound 18, (E)-(1S,14R,15R,18S,21S)-21-(3-Hydroxy-benzyl)-18-isopropyl-14-methoxy-15-methyl-3-oxa-8,17,20,23,27-pentaaza-tricyclo[21.3.1.1*5,9*]octacosa-,7,9(28),10-tetraene-2,16,19,22-tetraone]
- IC50 [2]: < 100 nM
- EC50 [1]: < 1000 nM
- inhibition at 1 µM [1]: 54%

Structure (SMILES): CO[C@@H]1CC/C=C/c2ccc3c(c2)[C@@H](CC3)OC(=O)[C@@H]2CCCN(N2)C(=O)[C@H](Cc2cccc(O)c2)NC(=O)[C@H](C(C)C)NC(=O)[C@@H]1C [Compound 19]
- IC50 [2]: < 100 nM
- EC50 [1]: < 1000 nM
- inhibition at 1 µM [1]: 70%

Structure (SMILES): CO[C@@H]1CCCCc2cccc(c2)[C@@H](C)OC(=O)[C@@H]2CCCN(N2)C(=O)[C@H](Cc2cccc(O)c2)NC(=O)[C@H](C(C)C)NC(=O)[C@@H]1C [Compound 20, (2R,5S,11S,14S,17R,18R)-11-(3-Hydroxy-benzyl)-14-isopropyl-18-methoxy-2,17-dimethyl-3-oxa-9,12,15,28-tetraaza-tricyclo[21.3.1.1*5,9*]octacosa-1(27),23,25-triene-4,10,13,16-tetraone]
- IC50 [2]: < 100 nM
- EC50 [1]: < 1000 nM
- inhibition at 1 µM [1]: 92%
